# US20130302442A1, “METHODS OF USING (4S,4AS,5AR,12AS)-4-DIMETHYLAMINO-3,10,12,12A-TETRAHYDROXY-7-[(METHOXY(METHYL)AMINO)-METHYL]-1,11-DIOXO-1,4,4A,5,5A,6,11,12A-OCTAHYDRO-NAPHTHACENE-2-CARBOXYLIC ACID AMIDE” (priority 2012, published 2013)
# Read-outs that look alike come from different tables or passages of the source.
# Key:
# Chlamydia pneumoniae = assay: Susceptibility testing (MIC, MBC) of 10 isolates of C. pneumoniae in HEp-2 cells; format: cell-based; settings: for MIC Range / MIC50 / MIC90: 72 h; for MIC50 / MIC90 / MBC: Chlamydia pneumoniae; for MBC / MBC 90% / MBC Range: after passage; for MBC: read-out: MBC 90%
# Chlamydia trachomatis [1] = assay: In vitro susceptibility testing of Chlamydia trachomatis in HEp-2 cells (first study); format: cell-based; settings: Chlamydia trachomatis, C. trachomatis strains, read-out: MIC at which 90% of the strains were inhibited (MIC90)
# Chlamydia trachomatis [2] = assay: Susceptibility testing (MIC, MBC) of 10 isolates of C. trachomatis in HEp-2 cells; format: cell-based; settings: for MIC Range / MIC50 / MIC90: 72 h; for MIC50 / MIC90 / MBC: Chlamydia trachomatis; for MBC / MBC Range: after passage; for MBC: read-out: MBC 90%
# Bifidobacterium brevi = assay: In vitro MIC testing against anaerobic bacteria; format: cell-based; settings: ATCC15698; Bifidobacterium brevi 3967, ATCC 15698
# Salmonella Spp. = assay: In vitro MIC testing, antibacterial spectrum of activity; format: cell-based; settings: Salmonella
# P. avidum = assay: as above; format: cell-based; settings: P. avidum [clinical isolates] (4 isolates)
# E. cloacae = assay: as above; format: cell-based; settings: Enterobacter cloacae; E. cloacae (30 isolates)
# P. granulosum = assay: as above; format: cell-based; settings: P. granulosum [clinical isolates] (3 isolates)
# Bifidobacterium longum = assay: In vitro MIC testing against anaerobic bacteria; format: cell-based; settings: ATCC15707; Bifidobacterium longum 3968, ATCC 15707
# [3] = test system: Streptococcus intermedius; assay: In vitro MIC testing against anaerobic bacteria; format: cell-based; settings: ATCC27335; Streptococcus intermedius 1203, ATCC 27335
# Veillonella parvula = assay: In vitro MIC testing against anaerobic bacteria; format: cell-based; settings: ATCC17745; Veillonella parvula 1272, ATCC 17745
# K. pneumoniae = assay: In vitro MIC testing, antibacterial spectrum of activity; format: cell-based; settings: for MIC50 / MIC90: Klebsiella pneumoniae
# Bifidobacterium bifidum = assay: In vitro MIC testing against anaerobic bacteria; format: cell-based; settings: ATCC15696; Bifidobacterium bifidum 3965, ATCC 15696
# Prevotella spp. = assay: In vitro MIC testing against anaerobic bacteria; format: cell-based
# E. faecium = assay: In vitro MIC testing, antibacterial spectrum of activity; format: cell-based; settings: Enterococcus faecium
# E. coli = assay: as above; format: cell-based; settings: Escherichia coli
# [4] = test system: Prevotella melaninogenica; assay: In vitro MIC testing against anaerobic bacteria; format: cell-based; settings: Prevotella melaninogenica 3443, read-out: MIC
# S. haemolyticus = assay: In vitro MIC testing, antibacterial spectrum of activity; format: cell-based; settings: Staphylococcus haemolyticus, S. haemolyticus (33 isolates); for MIC90: read-out: MIC90
# P. acnes = assay: as above; format: cell-based, Propionibacterium acnes; settings: Cutibacterium acnes
# Lactobacillus plantarum = assay: In vitro MIC testing against anaerobic bacteria; format: cell-based; settings: Lactiplantibacillus plantarum, ATCC39268; Lactobacillus plantarum 2791, ATCC 39268
# [5] = test system: Lactobacillus acidophilus; assay: In vitro MIC testing against anaerobic bacteria; format: cell-based; settings: Lactobacillus acidophilus 0681
# P. aeruginosa = assay: In vitro MIC testing, antibacterial spectrum of activity; format: cell-based; settings: P. aeruginosa (11 isolates)
# Bacteroides ovatus = assay: In vitro MIC testing against anaerobic bacteria; format: cell-based; settings: Bacteroides ovatus 3508, read-out: MIC
# Bifidobacterium infantis = assay: In vitro MIC testing against anaerobic bacteria; format: cell-based; settings: ATCC15702; Bifidobacterium infantis 3966, ATCC 15702
# Clostridium perfringens = assay: microbe, parasite or virus in culture; format: cell-based
# Lactobacillus casei = assay: In vitro MIC testing against anaerobic bacteria; format: cell-based; settings: Lacticaseibacillus casei, ATCC393; Lactobacillus casei 1722, ATCC 393
# S. agalactiae = assay: In vitro MIC testing, antibacterial spectrum of activity; format: cell-based; settings: Streptococcus agalactiae
# S. epidermidis = assay: as above; format: cell-based, Staphylococcus epidermidis; settings: Staphylococcus epidermidis; for MIC50: read-out: MIC50; for MIC90: read-out: MIC90
# S. aureus = assay: as above; format: cell-based, Staphylococcus aureus; settings: Staphylococcus aureus
# S. pyogenes = assay: as above; format: cell-based; settings: Streptococcus pyogenes
# [6] = test system: Streptococcus spp. [Group C]; assay: as above; format: cell-based; settings: Streptococcus spp. [Group C] (30 isolates)
# [7] = test system: hospital-associated methicillin-resistant S. aureus (MRSA-HA); assay: In vitro MIC against isolates of MRSA-HA; format: cell-based, Staphylococcus aureus; settings: Staphylococcus aureus; MRSA-HA (33 isolates)
# [8] = test system: methicillin-sensitive S. aureus (MSSA); assay: In vitro MIC against isolates of MSSA; format: cell-based, Staphylococcus aureus; settings: Staphylococcus aureus, MSSA (34 isolates)
# [9] = test system: community-acquired methicillin-resistant S. aureus (MRSA-CA); assay: In vitro MIC against isolates of MRSA-CA; format: cell-based, Staphylococcus aureus; settings: Staphylococcus aureus; MRSA-CA (33 isolates)
# S. pneumoniae = assay: In vitro MIC testing, antibacterial spectrum of activity; format: cell-based, Streptococcus pneumoniae; settings: Streptococcus pneumoniae, S. pneumoniae [PSSP] (32 isolates)
# E. faecalis = assay: as above; format: cell-based; settings: for MIC50 / MIC90: Enterococcus faecalis
# P. mirabilis = assay: as above; format: cell-based; settings: Proteus mirabilis; P. mirabilis (30 isolates)
# [10] = P. acnes [clinical isolates] (55 isolates)
# [11] = S. epidermidis [MRSE] (32 isolates)
# [12] = S. epidermidis [MSSE] (31 isolates)
structure (smiles),measurement,setting,value
C[C@H]1COc2c(N3CCN(C)CC3)c(F)cc3c(=O)c(C(=O)O)cn1c23 [Levofloxacin],MIC Range,Chlamydia pneumoniae,0.5 µg/mL
same,MIC50,Chlamydia pneumoniae,0.5 µg/mL
same,MIC90,Chlamydia pneumoniae,0.5 µg/mL
same,MBC,Chlamydia pneumoniae,2 µg/mL
same,MBC 90%,Chlamydia pneumoniae,2 µg/mL
same,MBC Range,Chlamydia pneumoniae,0.125 to 2 µg/mL
same,MIC90,Chlamydia trachomatis [1],0.25 µg/mL
same,MIC Range,Chlamydia trachomatis [2],0.125 to 0.5 µg/mL
same,MIC50,Chlamydia trachomatis [2],0.25 µg/mL
same,MIC90,Chlamydia trachomatis [2],0.25 µg/mL
same,MBC,Chlamydia trachomatis [2],0.5 µg/mL
same,MBC Range,Chlamydia trachomatis [2],0.125 to 1 µg/mL
"CN(C)[C@@H]1C(O)=C(C(N)=O)C(=O)[C@@]2(O)C(O)=C3C(=O)c4c(O)cccc4[C@@](C)(O)[C@H]3C[C@@H]12 [Tetracycline, tetracycline]",MIC,Bifidobacterium brevi,1 µg/mL
same,MIC50,Salmonella Spp.,2 µg/mL
same,MIC90,Salmonella Spp.,> 64 µg/mL
same,MIC Range,P. avidum,1 to 8 µg/mL
same,MIC90,E. cloacae,> 64 µg/mL
same,MIC Range,P. granulosum,1 to 2 µg/mL
same,MIC,Bifidobacterium longum,2 µg/mL
same,MIC,[3],2 µg/mL
same,MIC,Veillonella parvula,1 µg/mL
same,MIC Range,K. pneumoniae; K. pneumoniae [tetS] (7 isolates),0.5 to 4 µg/mL
same,MIC50,K. pneumoniae; K. pneumoniae (31 isolates),8 µg/mL
same,MIC90,K. pneumoniae; K. pneumoniae (31 isolates),> 64 µg/mL
same,MIC,Bifidobacterium bifidum,1 µg/mL
same,MIC,Prevotella spp.; Prevotella spp. 3564,1 µg/mL
same,MIC,Prevotella spp.; Prevotella spp. 3568,4 µg/mL
same,MIC50,E. faecium,1 µg/mL
same,MIC90,E. faecium,> 64 µg/mL
same,MIC50,E. faecium; VRE,2 µg/mL
same,MIC90,E. faecium; VRE,> 64 µg/mL
same,MIC90,"E. coli; E. coli (33 isolates), read-out: MIC90",> 64 µg/mL
same,MIC,[4],8 µg/mL
same,MIC90,S. haemolyticus,> 32 µg/mL
same,MIC50,P. acnes,0.5 µg/mL
same,MIC90,P. acnes,4 µg/mL
same,MIC50,P. acnes; [10],1 µg/mL
same,MIC90,P. acnes; [10],2 µg/mL
same,MIC,Lactobacillus plantarum,2 µg/mL
same,MIC,[5],2 µg/mL
same,MIC50,P. aeruginosa; Pseudomonas aeruginosa,64 µg/mL
same,MIC,Bacteroides ovatus,0.5 µg/mL
same,MIC,Bifidobacterium infantis,1 µg/mL
same,MIC,Clostridium perfringens,> 16 µg/mL
same,MIC,Clostridium perfringens; Clostridium perfringens 3518,> 16 µg/mL
same,MIC,Lactobacillus casei,2 µg/mL
same,MIC90,S. agalactiae,> 32 µg/mL
CC[C@H]1OC(=O)[C@H](C)[C@@H](O[C@H]2C[C@@](C)(OC)[C@@H](O)[C@H](C)O2)[C@H](C)[C@@H](O[C@@H]2O[C@H](C)C[C@H](N(C)C)[C@H]2O)[C@](C)(O)C[C@@H](C)CN(C)[C@H](C)[C@@H](O)[C@]1(C)O [Azithromycin],MIC Range,Chlamydia pneumoniae,0.03 to 0.0625 µg/mL
same,MIC50,Chlamydia pneumoniae,0.0625 µg/mL
same,MIC90,Chlamydia pneumoniae,0.0625 µg/mL
same,MBC,Chlamydia pneumoniae,0.25 µg/mL
same,MBC 90%,Chlamydia pneumoniae,0.25 µg/mL
same,MBC Range,Chlamydia pneumoniae,0.0625 to 0.25 µg/mL
same,MIC90,Chlamydia trachomatis [1],0.015 µg/mL
same,MIC Range,Chlamydia trachomatis [2],0.003 to 0.03 µg/mL
same,MIC50,Chlamydia trachomatis [2],0.0075 µg/mL
same,MIC90,Chlamydia trachomatis [2],0.015 µg/mL
same,MBC,Chlamydia trachomatis [2],0.015 µg/mL
same,MBC Range,Chlamydia trachomatis [2],0.007 to 0.03 µg/mL
CCC[C@@H]1C[C@@H](C(=O)N[C@@H]([C@H]2O[C@H](SC)[C@H](O)[C@@H](O)[C@H]2O)[C@H](C)Cl)N(C)C1 [Clindamycin],MIC50,S. epidermidis; [11],> 32 µg/mL
same,MIC90,S. epidermidis; [11],> 32 µg/mL
same,MIC50,S. epidermidis; [12],0.12 µg/mL
same,MIC90,S. epidermidis; [12],> 32 µg/mL
same,MIC50,S. aureus; MRSA,0.25 µg/mL
same,MIC90,S. aureus; MRSA,> 32 µg/mL
same,MIC50,S. aureus; MSSA,0.25 µg/mL
same,MIC90,S. aureus; MSSA,> 32 µg/mL
same,MIC50,S. pyogenes,0.03 µg/mL
same,MIC90,S. pyogenes,0.06 µg/mL
same,MIC Range,P. avidum,≦0.06-0.5 μg/mL
same,MIC50,[6]; read-out: MIC50,0.06 µg/mL
same,MIC90,[6]; read-out: MIC90,0.12 µg/mL
same,MIC50,[7],2 µg/mL
same,MIC90,[7],> 32 µg/mL
same,MIC50,[8],0.12 µg/mL
same,MIC90,[8]; read-out: MIC90,> 32 µg/mL
same,MIC50,[9],0.12 µg/mL
same,MIC90,[9],0.25 µg/mL
same,MIC50,E. faecium,> 32 µg/mL
same,MIC90,E. faecium,> 32 µg/mL
same,MIC50,E. faecium; VRE,> 32 µg/mL
same,MIC90,E. faecium; VRE,> 32 µg/mL
same,MIC50,S. pneumoniae; read-out: MIC50,0.03 µg/mL
same,MIC90,S. pneumoniae; read-out: MIC90,0.06 µg/mL
same,MIC50,E. faecalis,> 32 µg/mL
same,MIC90,E. faecalis,> 32 µg/mL
same,MIC50,S. haemolyticus; read-out: MIC50,0.12 µg/mL
same,MIC90,S. haemolyticus,1 µg/mL
same,MIC50,P. acnes; read-out: MIC50,≤ 0.06 µg/mL
same,MIC90,P. acnes; read-out: MIC90,4 µg/mL
same,MIC50,S. agalactiae,0.06 µg/mL
same,MIC90,S. agalactiae,> 16 µg/mL
CC1(C)S[C@@H]2[C@H](NC(=O)[C@H](N)c3ccccc3)C(=O)N2[C@H]1C(=O)O [Ampicillin],MIC50,Salmonella Spp.,1 µg/mL
same,MIC90,Salmonella Spp.,> 64 µg/mL
same,MIC50,E. cloacae,64 µg/mL
same,MIC90,E. cloacae,> 64 µg/mL
same,MIC Range,K. pneumoniae; K. pneumoniae (31 isolates),>64 µg/mL
same,MIC50,K. pneumoniae; K. pneumoniae (31 isolates),> 64 µg/mL
same,MIC90,K. pneumoniae; K. pneumoniae (31 isolates),> 64 µg/mL
same,MIC50,"E. faecium; E. faecium [VRE] (30 isolates), read-out: MIC50",> 64 µg/mL
same,MIC90,"E. faecium; E. faecium [VRE] (30 isolates), read-out: MIC90",> 64 µg/mL
same,MIC50,"E. faecium; E. faecium [VSE] (32 isolates), read-out: MIC50",64 µg/mL
same,MIC90,"E. faecium; E. faecium [VSE] (32 isolates), read-out: MIC90",> 64 µg/mL
same,MIC50,E. coli,> 64 µg/mL
same,MIC90,E. coli,> 64 µg/mL
same,MIC Range,E. faecalis; E. faecalis [VSE] (31 isolates),0.5 to 8 µg/mL
same,MIC50,"E. faecalis; E. faecalis [VSE] (31 isolates), read-out: MIC50",1 µg/mL
same,MIC90,"E. faecalis; E. faecalis [VSE] (31 isolates), read-out: MIC90",1 µg/mL
same,MIC50,P. mirabilis,4 µg/mL
same,MIC90,P. mirabilis,> 64 µg/mL
same,MIC Range,P. aeruginosa,>64 µg/mL
same,MIC50,P. aeruginosa; Pseudomonas aeruginosa,> 64 µg/mL
same,MIC90,P. aeruginosa; Pseudomonas aeruginosa,> 64 µg/mL
